Data on eight compounds can be found in patent US7504421B2, “Substituted 2-thio-3,5-dicyano-4-aryl-6-aminopyridines and their use” (priority 1999, dated 2009).

Experiment [1] concerns the target adenosine A2a receptor (Homo sapiens, UniProt P29274). Briefly: Intracellular cAMP (cAMP-RIA) in CHO cells transfected with cDNA for the A2a receptor, agonist mode. Type of experiment: cell-based. The conditions noted are these: for Concentration of intracellular cAMP in percent: CHO cells with A2a receptor, based on control without substance; for effect on cells with the A2a receptor (in words): summary of cAMP data. As to the method:
(§1) Cells of the permanent line CHO (Chinese Hamster Ovary) were stably transfected with cDNA for the adenosine receptor subtypes A1, A2a, A2b and A3. Binding of the substances to the A2a or A2b receptor subtypes was determined by measuring the intracellular cAMP concentration in these cells using a conventional radioimmunological assay (cAMP-RIA, IBL GmbH, Hamburg, Germany).
(§2) In the case of the action of the substances as agonists, binding of the substances is expressed in an increase of the intracellular cAMP concentration.
In the experiments below, the intracellular cAMP concentration in CHO cells which had been transfected with cDNA for the A2a receptor was determined. What is stated is the cAMP concentration in percent in all cells in a well of a microtiter plate, based on the control value obtained without any substances acting on the cells: […]

Experiment [2] relates to Langendorff heart of the rat (coronary arteries). As to the kind of experiment: Langendorff heart of the rat: coronary perfusion pressure, left ventricular pressure, heart rate. The conditions noted are these: isolated rat heart. As to the method: After opening the thoracic cage of anesthetized rats, the heart is removed quickly and introduced into a conventional Langendorff apparatus. The coronary arteries are perfused at a constant volume (10 ml/min), and the resulting perfusion pressure is recorded via an appropriate pressure sensor. In this arrangement, a decrease of the perfusion pressure corresponds to a relaxation of the coronary arteries. At the same time, the pressure which is developed by the heart during each contraction is measured via a balloon introduced into the left ventricle and a further pressure sensor. The frequency of the isolated beating heart is calculated from the number of contractions per time unit.
In this test arrangement, the following values were obtained for the coronary perfusion pressure (the stated percentage refers to the reduction of the coronary perfusion pressure in percent at the respective concentration):
At the stated concentrations, the substances tested had no effect on the pressure developed during the contraction in the left ventricle and no effect on the heart rate.

For experiment [3], the target named is T1, adenosine A2b receptor (Homo sapiens, UniProt P29275).
T1 sequence (P29275 1-332): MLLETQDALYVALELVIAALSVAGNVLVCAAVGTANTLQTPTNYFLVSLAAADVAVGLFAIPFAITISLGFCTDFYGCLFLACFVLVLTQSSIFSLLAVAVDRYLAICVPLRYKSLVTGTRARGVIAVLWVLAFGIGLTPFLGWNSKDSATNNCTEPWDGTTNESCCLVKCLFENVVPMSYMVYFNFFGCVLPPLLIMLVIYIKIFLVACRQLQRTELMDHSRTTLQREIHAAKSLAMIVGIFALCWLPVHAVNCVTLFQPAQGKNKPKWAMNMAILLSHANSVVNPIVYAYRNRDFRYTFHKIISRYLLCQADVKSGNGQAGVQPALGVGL
As to the kind of experiment: Intracellular cAMP (cAMP-RIA) in CHO cells transfected with cDNA for the A2b receptor, agonist mode. Type of experiment: cell-based. The note with it: for activity at 0.1 µM / activity at 1 µM / activity at 10 µM / activity at 0.01 µM / activity at 0.001 µM: read-out: Concentration of intracellular cAMP in percent; for agonistic effect on cells which express the adenosine receptor A2b (in words): summary of cAMP data. As to the method: as §1, §2
In the experiments below, the intracellular cAMP concentration in CHO cells which had been transfected with cDNA for the A2b receptor was determined. What is stated is the cAMP concentration in percent in all cells in a well of a microtiter plate, based on the control value obtained without any substances acting on the cells: […]

For experiment [4], the target named is T2, adenosine A1 receptor (Homo sapiens, UniProt P30542).
T2 sequence (P30542 1-326): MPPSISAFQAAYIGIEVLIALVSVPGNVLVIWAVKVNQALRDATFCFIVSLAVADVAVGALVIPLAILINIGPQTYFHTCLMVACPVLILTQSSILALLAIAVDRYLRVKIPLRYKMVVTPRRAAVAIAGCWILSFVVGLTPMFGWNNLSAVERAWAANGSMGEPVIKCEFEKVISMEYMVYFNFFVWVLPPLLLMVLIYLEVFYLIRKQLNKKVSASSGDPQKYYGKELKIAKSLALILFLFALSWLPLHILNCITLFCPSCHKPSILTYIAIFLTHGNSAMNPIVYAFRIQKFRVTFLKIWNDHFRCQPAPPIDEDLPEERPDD
As to the kind of experiment: Intracellular cAMP in CHO cells transfected with cDNA for the A1 receptor after prestimulation with forskolin. Type of experiment: cell-based. The note with it: for remaining activity at 10 µM / remaining activity at 1 µM / remaining activity at 0.1 µM: CHO cells with A1 receptor, based on control prestimulated with 1 μM forskolin for 15 min (18% without forskolin), read-out: Concentration of intracellular cAMP in percent; for remaining activity at 10 µM: 10^-5 M; for remaining activity at 1 µM: 10^-6 M; for remaining activity at 0.1 µM: 10^-7 M; for receptor selectivity: adenosine A1 receptor: conclusion from cAMP data on A1, A2a, A2b cells; for agonistic effect on cells with the A1 receptor (in words): summary of cAMP data. How it is done: as §1
The adenosine receptors A1 and A3 are coupled to a Gi protein, i.e. stimulation of these receptors results in an inhibition of adenylate cyclase and thus a reduction of the intracellular cAMP level. To identify A1/A3 receptor agonists, the adenylate cyclase is stimulated using forskolin. However, additional stimulation of the A1/A3 receptors inhibits adenylate cyclase, so that it is possible to detect A1/A3 receptor agonists by a comparatively low concentration of cAMP in the cell.
In the following experiments, the intracellular cAMP concentration in CHO cells transfected with the cDNA for the A1 receptor was determined.

The mark [5] stands for this setting: CHO cells with A2b receptor, 10^-5 M, based on control without substance.
Where [6] appears, read: CHO cells with A2b receptor, 10^-6 M, based on control without substance.
[7] abbreviates: CHO cells with A2b receptor, 10^-7 M, based on control without substance.

Molecules are shown by their SMILES. Like-named read-outs stand apart in the source and are kept apart here.

Sequence of adenosine A2a receptor (P29274 whole entry): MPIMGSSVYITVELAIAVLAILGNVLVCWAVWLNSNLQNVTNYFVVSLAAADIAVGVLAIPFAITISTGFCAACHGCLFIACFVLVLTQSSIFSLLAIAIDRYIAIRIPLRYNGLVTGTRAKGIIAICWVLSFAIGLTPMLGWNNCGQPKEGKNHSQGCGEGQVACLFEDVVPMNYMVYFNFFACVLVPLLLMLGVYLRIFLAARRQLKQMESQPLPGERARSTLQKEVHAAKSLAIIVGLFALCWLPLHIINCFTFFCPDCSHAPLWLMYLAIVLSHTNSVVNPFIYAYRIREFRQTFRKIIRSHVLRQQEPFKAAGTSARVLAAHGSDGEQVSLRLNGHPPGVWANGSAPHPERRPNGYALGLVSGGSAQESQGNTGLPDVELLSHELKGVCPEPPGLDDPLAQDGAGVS

On to `N#Cc1c(N)nc(SCCO)c(C#N)c1-c1ccc(O)cc1` [Example 21, 2-Amino-6-[(2-hydroxyethyl)sulfanyl]-4-(4-hydroxyphenyl)-3,5-pyridinedicarbonitrile], for which the “Concentration of intracellular cAMP in percent” value (shortened to “Concentration … in percent”) in experiment [1] (10^-6 M) is 117%. Also, the “Concentration … in percent” value in experiment [1] (10^-7 M) amounted to 143%. In addition, the “Reduction of the coronary perfusion pressure in percent” value (from here on “Reduction … in percent”) in experiment [2] (concentration 10^-6 g/ml) is reported as “about 75%”. The “Reduction … in percent” value in experiment [2] (concentration 10^-7 g/ml) is “about 40%”. In experiment [3] (CHO), the activity at 0.1 µM came to 253%, the activity at 1 µM was 432% and the activity at 10 µM worked out at 384%.

On to `N#Cc1c(N)nc(SCC(N)=O)c(C#N)c1-c1ccc(O)cc1` [A 1], for which the “Concentration … in percent” value in experiment [1] (10^-5 M) amounted to 208%; in experiment [1] (10^-6 M), 117%; in experiment [1] (10^-7 M), 92%. Besides, the “effect on cells with the A2a receptor (in words)” value in experiment [1] is recorded as “virtually no effect”. Besides, the activity at 10 µM in experiment [3] (setting [5]) worked out at 900%. Also, the activity at 1 µM in experiment [3] (setting [6]) is 947%. Besides, the activity at 0.1 µM in experiment [3] (setting [7]) came out at 837%. Besides, the “agonistic effect on cells which express the adenosine receptor A2b (in words)” value in experiment [3] is recorded as “clear agonistic effect”.

With `N#Cc1c(N)nc(SCCO)c(C#N)c1-c1ccccc1` [A 104], the “Concentration … in percent” value in experiment [1] (10^-5 M) was 212%. In experiment [1] (10^-6 M), the “Concentration … in percent” value came out at 146%. Further, the “Concentration … in percent” value in experiment [1] (10^-7 M) is listed as 107%. Moreover, the “Concentration … in percent” value in experiment [1] (10^-8 M) was determined as 107%. The “Concentration … in percent” value in experiment [1] (10^-9 M) was found to be 104%. Moreover, the “effect on cells with the A2a receptor (in words)” value in experiment [1] is reported as “virtually no effect”. For the same compound, in experiment [4], the remaining activity at 10 µM came out at 21%, the remaining activity at 1 µM turned out to be 23%, the remaining activity at 0.1 µM came to 28% and the “receptor selectivity: adenosine A1 receptor” value is “selective adenosine A1 receptor agonists”. Moreover, the “agonistic effect on cells with the A1 receptor (in words)” value in experiment [4] is recorded as “clear agonistic effect”. Also, the activity at 10 µM in experiment [3] (setting [5]) turned out to be 571%. Moreover, the activity at 1 µM in experiment [3] (setting [6]) was found to be 586%. In addition, the activity at 0.1 µM in experiment [3] (setting [7]) came to 438%. Further, the activity at 0.01 µM in experiment [3] (CHO cells with A2b receptor, 10^-8 M, based on control without substance) turned out to be 178%. In addition, the activity at 0.001 µM in experiment [3] (CHO cells with A2b receptor, 10^-9 M, based on control without substance) was 100%. In addition, in experiment [3], the “agonistic effect on cells which express the adenosine receptor A2b (in words)” value is recorded as “considerably weaker effect”.

Regarding `N#Cc1c(N)nc(SCc2ncc[nH]2)c(C#N)c1-c1ccc(O)cc1` [A 379], the “Concentration … in percent” value in experiment [1] (10^-5 M) turned out to be 291%. In addition, in experiment [1] (10^-6 M), the “Concentration … in percent” value came to 235%. In experiment [1] (10^-7 M), the “Concentration … in percent” value is recorded as 218%. The “Concentration … in percent” value in experiment [1] (10^-8 M) worked out at 160%. Further, in experiment [1] (10^-9 M), the “Concentration … in percent” value is 93%. The “effect on cells with the A2a receptor (in words)” value in experiment [1] was “virtually no effect”. Moreover, in experiment [4], the remaining activity at 10 µM was 35%, the remaining activity at 1 µM was found to be 34%, the remaining activity at 0.1 µM stood at 34% and the “agonistic effect on cells with the A1 receptor (in words)” value is reported as “comparably weaker effect”. Also, the “Reduction … in percent” value in experiment [2] (concentration 10^-6 g/ml) is given as “about 63%”. For the same compound, in experiment [2] (concentration 10^-7 g/ml), the “Reduction … in percent” value is “about 64%”. In experiment [3] (CHO), the activity at 0.001 µM is 870%, the activity at 0.01 µM came to 846%, the activity at 0.1 µM was 861% and the activity at 1 µM came out at 936%. The “receptor selectivity: adenosine A2b receptor” value in experiment [3] (conclusion from cAMP data on A1, A2a, A2b cells) is on record as “selective adenosine A2b receptor agonist”. The “agonistic effect on cells which express the adenosine receptor A2b (in words)” value in experiment [3] is recorded as “clear agonistic effect”.

`Cc1ccc(-c2c(C#N)c(N)nc(SCc3ccccc3)c2C#N)cc1` [A 189]: the results for the “Reduction … in percent” value in experiment [2] (concentration 10^-6 g/ml) and in experiment [2] (concentration 10^-7 g/ml) were “about 37%” and “no effect observed”, respectively.

Regarding `CC(O)CSc1nc(N)c(C#N)c(-c2cccc(O)c2)c1C#N` (stereo not drawn) [A 46], the “Concentration … in percent” value came to 183% in experiment [1] (10^-5 M), 108% in experiment [1] (10^-6 M) and 67% in experiment [1] (10^-7 M). For the same compound, the activity at 10 µM in experiment [3] (setting [5]) was 753%. Further, the activity at 1 µM in experiment [3] (setting [6]) was 716%. Besides, in experiment [3] (setting [7]), the activity at 0.1 µM came to 463%.

For the compound `N#Cc1c(N)nc(SCCO)c(C#N)c1-c1cccc(O)c1` [A 43], in experiment [1] (10^-5 M), the “Concentration … in percent” value came out at 317%. Further, the “Concentration … in percent” value in experiment [1] (10^-6 M) was 200%. Further, in experiment [1] (10^-7 M), the “Concentration … in percent” value was determined as 117%. The “effect on cells with the A2a receptor (in words)” value in experiment [1] was “virtually no effect”. Also, in experiment [4], the remaining activity at 10 µM came out at 22%, the remaining activity at 1 µM was determined as 24%, the remaining activity at 0.1 µM worked out at 18% and the “receptor selectivity: adenosine A1 receptor” value is listed as “selective adenosine A1 receptor agonists”. In experiment [4], the “agonistic effect on cells with the A1 receptor (in words)” value is on record as “clear agonistic effect”. Moreover, in experiment [2] (concentration 10^-6 g/ml), the “Reduction … in percent” value is reported as “about 68%”. For the same compound, the “Reduction … in percent” value in experiment [2] (concentration 10^-7 g/ml) is “about 42%”. Also, the activity at 10 µM in experiment [3] (setting [5]) came out at 784%. In experiment [3] (setting [6]), the activity at 1 µM was 674%. Also, in experiment [3] (setting [7]), the activity at 0.1 µM came out at 347%. In addition, the “agonistic effect on cells which express the adenosine receptor A2b (in words)” value in experiment [3] is “considerably weaker effect”.

For the compound `Cc1ccc(-c2c(C#N)c(N)nc(SCC(O)CO)c2C#N)cc1` (stereo not drawn) [A 198], the figures for the “Reduction … in percent” value in experiment [2] (concentration 10^-6 g/ml) and in experiment [2] (concentration 10^-7 g/ml) were “about 26%” and “no effect observed”, respectively.
